# Reference: patent publication EP1362591A1, “Use of a composition containing 5-androstene-3 beta, 17-alpha diol” (LORIA, Roger M., priority 1996, dated 1997)
# What was measured:
# [1] = system: ZR-75-1 cells; assay: Cell proliferation assay, tritiated thymidine incorporation; type: cell-based, human; details: for cell proliferation: Example 1, six day period
# Description: The βAED, 17 beta-oestradiol and tamoxifen were obtained from Sigma Chemical Company (St. Louis, Missouri). The αAED and Flutamide were obtained from Steriloid, Inc. (Walton, New Hampshire) and Schering Corporation (Kenilworth, New Jersey), respectively. All steroids except βAED were dissolved in ethanol. βAED was dissolved in DMSO:ETHOL (1:1 v/v). Stock solutions were filtered and kept at 4°C. For testing, stock solutions were diluted in media immediately before use. The final concentration of vehicle was always ≤ 0.2% in all samples, and this concentration had no significant cytotoxic effect on the human breast cell cancer cell line designated ZR-75-1 (American Type Culture Collection) as determined by trypan blue exclusion.
# The ZR-75-1 cell line (passage 89) was obtained from the American Type Culture Collection (Rockville, Maryland). The cells were cultured in RPMI-1640 medium containing 10% heat-inactivated fetal calf serum, 200 µM L-glutamine, […], 1.5 U/ml penicillin, and 1.5 µg/ml streptomycin in 5% CO2 at 37°C. The cells were passaged twice weekly.
# (§1) Cells were first seeded at initial density of 1x10^5 cells per ml in quadruplicates in 24 multi-well flat bottom plates (Costar). Cells were then allowed to adhere and grow in phenol red-free […] media supplemented with 10 % heat-inactivated fetal calf serum (FCS), 200 µM L-glutamine, 10 mM HEPES, 2.5 U/ml penicillin and 2.5 µg/ml streptomycin in 5% CO2 at 37°C. After 48 hours, four wells were sacrificed and counted to determine plating efficiency. In the remaining wells, medium was removed by aspiration and cells in each well were exposed to the media containing the specified steroid. The controls containing only medium or medium with vehicle were also prepared. In all samples, medium was changed every 48 hours. At the pre-established time-point. Cells were removed by trypsinization and washed. Cell number and viability were determined by trypan blue exclusion using a hemocytometer. Parallel cultures were also run to determine cell proliferation.
# (§2) For cell proliferation assays, cell suspensions were prepared by trypsinization of cells from cultures prepared in accord with methods described above. Cell viability was determined by trypan blue exclusion. The cells were then seeded in flat-bottom 96-well microtiter plates at a density of 2X10^3 cells/well and were allowed to rest for 48 hours in order to adhere. Non-adherent dead cells were removed by aspiration. Cells were then grown in media without phenol red. Some of the media contained supplements as indicated above. The active agents or vehicle control were added to the media. The cells were then grown for six days. Media was changed on the samples every 48 hours. On day 6, cells were pulsed with 1 µCi[…] for the last 6 hours of incubation before harvesting onto glass filter using a HPD cell harvester (Cambridge Technology, Watertown, Massachusetts) and counted on a KLB scintillation counter.
# [2] = system: RAW 264.7; assay: Proliferation of murine macrophage myeloma cells; type: cell-based; details: Example 9
# Description: as §2
# Effects of αAED at doses of 50 ηM and 100 ηM doses on murine macrophage myeloma cells (RAW 264.7, obtained from the American Type Culture Collection) was studied.
# [3] = system: P388D1 cells; assay: Growth of lymphoid neoplasm cells in the presence of RU486; type: cell-based; details: Example 8; RU486 at 0.5 µM and 1.0 µM
# Description: as §2
# Effect of αAED on growth of lymphoid neoplasm (P388D1 cells obtained from the American Type Culture Collection) in the presence of RU486 at concentration of 0.5 µM and 1.0 µM was studied in accord with the methods described above.
# [4] = system: ZR-75-1 cells; assay: Cell count and viability by trypan blue exclusion; type: cell-based, human
# Description: as §1
# Initial tests were carried out to determine the optimal (maximal) dose of αAED required to inhibit growth of the ZR-75-1 cells in in vitro as determined by tritiated tymidine incorporation. […] To ensure that inhibition was not due to cytotoxicity, cell count and viability were assessed by trypan blue exclusion.
SMILES,antiproliferative effect on the growth of ZR-75-1 cells ([1]; alone at 100 ηM),proliferation ([2]; 50 ηM),proliferation ([2]; 100 ηM),growth of lymphoid neoplasm in combination with RU486 [3],cytotoxicity (cell count and viability) [4],cell proliferation ([1]; 6.25 ηM),cell proliferation ([1]; 25 ηM),cell proliferation ([1]; 50 ηM),"proliferation of cells in the presence of βAED ([1]; Example 2, varied αAED with βAED constant at 2.5 ηM)","proliferation in the presence of estradiol ([1]; Example 3, higher doses of αAED with 1 ηM estradiol, 6 day period)","antiproliferative effects in the presence of Flutamide ([1]; Example 4, ≥6.25 ηM αAED)","synergism with RU486 ([1]; Example 5, RU486 1 µM)","proliferation of cells in the presence of RU486 ([1]; Example 5, concentrations of αAED with 0.5 µM RU486)","IC50 ([1]; Homo sapiens, dose and time-dependent inhibition of ZR-75-1 growth, read-out: half-maximal dose (anti-proliferative effect)) [nM]",growth of ZR-75-1 cells ([1]; concentration of 25 ηM or greater),"proliferation of ZR-75-1 cells ([1]; concentrations between 6.25 and 12.5 ηM, P<0.01 vs vehicle control)",maximal dose (anti-proliferative effect) ([1]; dose and time-dependent inhibition of ZR-75-1 growth),"effect on the growth of cells ([1]; doses ranging from 3.13 ηM to 50 ηM, compared to vehicle control after 6 days)"
"C[C@]12CC[C@H]3[C@@H](CC=C4C[C@@H](O)CC[C@@]43C)[C@@H]1CC[C@@H]2O [βAED, 5-androstene 3ß,17ß diol, reference compound]",did not have any antiproliferative effect,,,,,,,,,,,,,,,,,
"C[C@]12CC[C@H]3[C@@H](CC=C4C[C@@H](O)CC[C@@]43C)[C@@H]1CC[C@H]2O [αAED, 5-androstene 3ß,17α diol]",,significant inhibition of proliferation,significant inhibition of proliferation,increased effectiveness over use of one agent,not toxic to the cells,increasing proliferation,decreasing cell proliferation,marked decrease,decreased proliferation at all concentrations,suppressed proliferation even in the presence of estradiol,greatly enhanced,even greater,synergistic action to decrease proliferation of cells,50,significantly inhibited the growth,stimulated proliferation,100 ηM,biphasic effect
